31 compounds from patent publication US20260125400A1, “TYK2 DEGRADERS AND USES THEREOF” (Kymera Therapeutics, Inc., priority 2023, published 2026) can be followed below.

Structures are written as SMILES.

For this test, the target named is T1, TYK2 (Homo sapiens, UniProt P29597).
T1 construct: Degradation of TYK2 in cells was quantitatively measured using Meso Scale Discovery (MSD) technology; endogenous in cells; host or cells: OCI-LY10
Kind of test: TYK2 MSD degradation in OCI-LY10 cells. As to conditions: TYK2 degradation in OCI-LY10 cells, 4 to 24 hours incubation; for DC50: read-out: TYK2 MSD OCI-LY10 Rel-DC50. Type of test: cell-based. The gist of the method:
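Cellular TYK2 levels were measured by Meso Scale Discovery sandwich detection in RIPA lysates of OCI-LY10 cells exposed 4 to 24 hours at 37° C to nine 1:3 compound doses starting at 1 to 10 μM final; dose-response fitted by four-parameter regression.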

T1 sequence (P29597 whole entry): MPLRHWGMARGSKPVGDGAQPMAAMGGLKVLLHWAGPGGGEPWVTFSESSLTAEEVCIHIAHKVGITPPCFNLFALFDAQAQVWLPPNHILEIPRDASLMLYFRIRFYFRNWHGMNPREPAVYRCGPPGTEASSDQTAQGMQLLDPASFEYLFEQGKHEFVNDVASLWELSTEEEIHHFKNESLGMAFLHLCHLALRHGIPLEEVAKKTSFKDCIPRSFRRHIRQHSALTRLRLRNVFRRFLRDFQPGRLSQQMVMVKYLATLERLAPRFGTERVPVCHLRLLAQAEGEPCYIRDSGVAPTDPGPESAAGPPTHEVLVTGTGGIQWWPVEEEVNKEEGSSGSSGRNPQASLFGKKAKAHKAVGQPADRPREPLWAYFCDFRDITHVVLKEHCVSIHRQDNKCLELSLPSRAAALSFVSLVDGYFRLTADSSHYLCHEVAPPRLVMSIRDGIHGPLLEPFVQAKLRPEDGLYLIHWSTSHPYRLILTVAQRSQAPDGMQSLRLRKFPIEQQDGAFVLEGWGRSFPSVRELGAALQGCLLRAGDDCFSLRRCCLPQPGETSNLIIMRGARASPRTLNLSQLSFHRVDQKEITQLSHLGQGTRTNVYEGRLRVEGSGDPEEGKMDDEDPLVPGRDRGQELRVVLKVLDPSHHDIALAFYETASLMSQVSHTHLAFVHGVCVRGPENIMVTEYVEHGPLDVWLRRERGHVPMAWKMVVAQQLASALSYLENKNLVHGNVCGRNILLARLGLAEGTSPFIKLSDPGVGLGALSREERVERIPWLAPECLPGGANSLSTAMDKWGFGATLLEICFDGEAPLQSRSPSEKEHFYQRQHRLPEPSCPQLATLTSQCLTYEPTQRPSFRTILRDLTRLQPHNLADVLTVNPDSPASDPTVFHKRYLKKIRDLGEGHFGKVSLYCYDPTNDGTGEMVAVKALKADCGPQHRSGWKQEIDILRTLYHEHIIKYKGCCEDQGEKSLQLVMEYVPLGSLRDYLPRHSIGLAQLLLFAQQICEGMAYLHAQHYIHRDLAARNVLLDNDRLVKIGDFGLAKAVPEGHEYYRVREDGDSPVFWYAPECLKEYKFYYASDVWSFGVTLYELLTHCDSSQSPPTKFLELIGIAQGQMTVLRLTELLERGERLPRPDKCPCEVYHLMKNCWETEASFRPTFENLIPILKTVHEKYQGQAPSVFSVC

On to `CNc1cc(-c2ccc(N3CCN(CC4CC5(CCN(C(=O)c6ccc(Cl)c(N7CCC(=O)NC7=O)c6)CC5)C4)CC3)cc2)nn2c(C(=O)N[C@@H]3C[C@@H]3F)cnc12` [I-889], for which the “TYK2 MSD OCI-LY10 Dmax %” value is recorded as “D (D (<50%))” and the DC50 was above 100 nM.
For `CNc1cc(N2CCc3c(CN4CCC(N5CCN(C(=O)c6ccc(Cl)c(N7CCC(=O)NC7=O)c6)CC5)C(F)(F)C4)cccc32)nn2c(C(=O)N[C@@H]3C[C@@H]3F)cnc12` (some centres unmarked) [I-890], the “TYK2 MSD OCI-LY10 Dmax %” value was “B (B (90 to >75%))” and the half-maximal degradation concentration (DC50) is below 10 nM.
Consider `CNc1cc(N2CCc3c(CN4CCC(CN5CCN(C(=O)c6ccc(Cl)c(N7CCC(=O)NC7=O)c6)CC5)CC4)cccc32)nn2c(C(=O)N[C@@H]3C[C@@H]3F)cnc12` [I-891], for which the “TYK2 MSD OCI-LY10 Dmax %” value was “D (D (<50%))” and the half-maximal degradation concentration (DC50) is above 100 nM.
For `CNc1cc(N2CCc3c(-c4ccc(N5CC6(CCN(C(=O)c7ccc(N8CCC(=O)NC8=O)c(Cl)c7)CC6)C5)cn4)cccc32)nn2c(C(=O)N[C@@H]3C[C@@H]3F)cnc12` [I-892] the same measures were “B (B (90 to >75%))” and below 10 nM.
On the same counts, the results for `CNc1cc(N2CCc3c(CN4CCC(CN5CCC6(CC5)CN(C(=O)c5ccc(Cl)c(N7CCC(=O)NC7=O)c5)C6)CC4)cccc32)nn2c(C(=O)N[C@@H]3C[C@@H]3F)cnc12` [I-893] are “D (D (<50%))” and above 100 nM.
For `CNc1cc(N2CCc3c(CN4CCC(CN5CC6(CCN(C(=O)c7ccc(Cl)c(N8CCC(=O)NC8=O)c7)CC6)C5)CC4)cccc32)nn2c(C(=O)N[C@@H]3C[C@@H]3F)cnc12` [I-894] the same measures were “B (B (90 to >75%))” and below 10 nM.
`CNc1cc(N2CCc3c(CCN4CCC5(CC4)CCN(C(=O)c4ccc(Cl)c(N6CCC(=O)NC6=O)c4)CC5)cccc32)nn2c(C(=O)N[C@@H]3C[C@@H]3F)cnc12` [I-895]: the “TYK2 MSD OCI-LY10 Dmax %” value is reported as “D (D (<50%))” and the DC50 was above 100 nM.
For the compound `CNc1cc(N2CCc3c(-c4ccc(CN5CC6(CCN(C(=O)c7ccc(N8CCC(=O)NC8=O)c(Cl)c7)CC6)C5)cn4)cccc32)nn2c(C(=O)N[C@@H]3C[C@@H]3F)cnc12` [I-896], the “TYK2 MSD OCI-LY10 Dmax %” value was “D (D (<50%))” and the DC50 is above 100 nM.
As to `CNc1cc(N2CCc3c2cccc3C23CC(CN4CC5(CCN(C(=O)c6ccc(Cl)c(N7CCC(=O)NC7=O)c6)CC5(F)F)C4)(C2)C3)nn2c(C(=O)N[C@@H]3C[C@@H]3F)cnc12` [I-897], the “TYK2 MSD OCI-LY10 Dmax %” value is reported as “B (B (90 to >75%))” and the DC50 was below 10 nM.
For `CNc1cc(N2CCc3c(-c4ccc(CN5CCC6(CC5)CC(Oc5ccc(N7CCC(=O)NC7=O)c(Cl)c5)C6)cn4)cccc32)nn2c(C(=O)N[C@@H]3C[C@@H]3F)cnc12` [I-898], the “TYK2 MSD OCI-LY10 Dmax %” value is listed as “D (D (<50%))” and the DC50 is above 100 nM.
On to `CNc1cc(N2CCc3c(N4CCC(CN5CC6(CCN(Cc7ccc(Cl)c(N8CCC(=O)NC8=O)c7)CC6(F)F)C5)CC4)cccc32)nn2c(C(=O)N[C@@H]3C[C@@H]3F)cnc12` [I-899], for which the “TYK2 MSD OCI-LY10 Dmax %” value is given as “D (D (<50%))” and the DC50 was above 100 nM.
For `CNc1cc(N2CCc3c(CN4CCC(N5CCN(CCc6ccc(Cl)c(C7CCC(=O)NC7=O)c6)CC5)C(F)(F)C4)cccc32)nn2c(C(=O)NC3CC3F)cnc12` (centres unmarked) [I-900] the same measures were “B (B (90 to >75%))” and below 10 nM.
On the same counts, the results for `CNc1cc(N2CCc3c(-c4ccc(CN5CCC6(CCN(C(=O)c7ccc(Cl)c(N8CCC(=O)NC8=O)c7)CC6)C(F)(F)C5)cn4)cccc32)nn2c(C(=O)N[C@@H]3C[C@@H]3F)cnc12` [I-901] are “A (A (>90%))” and below 1 nM.
On the same counts, the results for `CNc1cc(N2CCc3c(-c4ccc(CN5CCC(N6CCN(CCc7ccc(Cl)c(C8CCC(=O)NC8=O)c7)CC6)C(F)(F)C5)cn4)cccc32)nn2c(C(=O)NC3CC3F)cnc12` (centres unmarked) [I-902] are “B (B (90 to >75%))” and below 10 nM.
For `CNc1cc(N2CCc3c(CN4CCC(N5CC(N6CCN(c7cccc8c(N9CCC(=O)NC9=O)nn(C)c78)CC6)C5)C(F)(F)C4)cccc32)nn2c(C(=O)N[C@@H]3C[C@@H]3F)cnc12` (some centres unmarked) [I-903], the “TYK2 MSD OCI-LY10 Dmax %” value was “B (B (90 to >75%))” and the DC50 is below 10 nM.
`CNc1cc(N2CCc3c(CN4CCC(N5CC(N6CCN(c7cccn8c(N9CCC(=O)NC9=O)cnc78)CC6)C5)C(F)(F)C4)cccc32)nn2c(C(=O)N[C@@H]3C[C@@H]3F)cnc12` (some centres unmarked) [I-904]: the “TYK2 MSD OCI-LY10 Dmax %” value is listed as “A (A (>90%))” and the DC50 is below 1 nM.
For the compound `CNc1cc(N2CCc3c(-c4ccc(CN5CCC(N6CCN(c7ccc8c(c7F)n(C)c(=O)n8C7CCC(=O)NC7=O)CC6)C(F)(F)C5)cn4)cccc32)nn2c(C(=O)NC3CC3F)cnc12` (centres unmarked) [I-910], the “TYK2 MSD OCI-LY10 Dmax %” value is given as “B (B (90 to >75%))” and the DC50 was below 10 nM.
Take `CNC(=O)c1cnc(Nc2ccc(C(=O)NCCOCCOCCOCCOCCN(C(=O)[C@H]3CCCN(c4cncc5ccccc45)C3)c3ccc(=O)n(CC(=O)OC)c3)cn2)cc1Nc1cccc(-c2ncccn2)c1OC` [I-912, Methyl (S)-2-(5-(1-(isoquinolin-4-yl)-N-(1-(6-((4-((2-methoxy-3-(pyrimidin-2-yl)phenyl)amino)-5-(methylcarbamoyl)pyridin-2-yl)amino)pyridin-3-yl)-1-oxo-5,8,11,14-tetraoxa-2-azahexadecan-16-yl)piperidine-3-carboxamido)-2-oxopyridin-1(2H)-yl)acetate]: the Dmax was below 50% and the half-maximal degradation concentration (DC50) is above 100 nM.
Take `CNC(=O)c1cnc(Nc2ccc(C(=O)NCCOCCOCCN(C(=O)[C@H]3CCCN(c4cncc5ccccc45)C3)c3ccc(=O)n(CC(=O)O)c3)cn2)cc1Nc1cccc(-c2ncccn2)c1OC` [I-915, (S)-2-(5-(1-(isoquinolin-4-yl)-N-(2-(2-(2-(6-((4-((2-methoxy-3-(pyrimidin-2-yl)phenyl)amino)-5-(methylcarbamoyl)pyridin-2-yl)amino)nicotinamido)ethoxy)ethoxy)ethyl)piperidine-3-carboxamido)-2-oxopyridin-1(2H)-yl)acetic acid]: the Dmax fell in the range of 50 to 75% and the DC50 was in the range of 10 to 100 nM.
Consider `CNC(=O)c1cnc(Nc2ccc(C(=O)NCCOCCOCCOCCN(C(=O)C3CCCN(c4cncc5ccccc45)C3)c3ccc(=O)n(CC(=O)O)c3)cn2)cc1Nc1cccc(-c2ncccn2)c1OC` (centres unmarked) [I-918], for which the “TYK2 MSD OCI-LY10 Dmax %” value was “D (D (<50%))” and the half-maximal degradation concentration (DC50) was above 100 nM.
On the same counts, the results for `CNC(=O)c1cnc(Nc2ccc(C(=O)NCCOCCOCCOCCOCCN(C(=O)C3CCCN(c4cncc5ccccc45)C3)c3ccc(=O)n(CC(=O)O)c3)cn2)cc1Nc1cccc(-c2ncccn2)c1OC` (centres unmarked) [I-920] are “D (D (<50%))” and above 100 nM.
For `CNc1cc(N2CCc3c(-c4ncc(CN5CC6(CCN(C(=O)c7cc(N8CCC(=O)NC8=O)c(Cl)c(C)n7)CC6(F)F)C5)cc4F)cccc32)nn2c(C(=O)N[C@@H]3C[C@@H]3F)cnc12` [I-930] the same measures were “A (A (>90%))” and below 1 nM.
For `CNc1cc(N2CCc3c(-c4ncc(CN5CC6(CCN(C(=O)c7cc(Cl)c(C)c(N8CCC(=O)NC8=O)c7)CC6(F)F)C5)cc4F)cc(F)cc32)nn2c(C(=O)N[C@@H]3C[C@@H]3F)cnc12` [I-944] the same measures were “A (A (>90%))” and below 1 nM.
With `CNc1cc(N2CCc3c(-c4ncc(CN5CC6(CCN(C(=O)c7cc(C)c(Cl)c(N8CCC(=O)NC8=O)c7)CC6(F)F)C5)cc4F)cc(F)cc32)nn2c(C(=O)N[C@@H]3C[C@@H]3F)cnc12` [I-946], the “TYK2 MSD OCI-LY10 Dmax %” value was “A (A (>90%))” and the DC50 is below 1 nM.
For `CNc1cc(N2CCc3c(-c4cc(C)c(CN5CC6(CCN(C(=O)c7cc(C)c(Cl)c(N8CCC(=O)NC8=O)c7)CC6(F)F)C5)cn4)cccc32)nn2c(C(=O)N[C@@H]3C[C@@H]3F)cnc12` [I-958] the same measures were “A (A (>90%))” and below 1 nM.
For `CNc1cc(N2CCc3c(-c4ccc(CN5CC6(CCN(C(=O)c7cc(C)c(Cl)c(N8CCC(=O)NC8=O)c7)CC6(F)F)C5)c(C)n4)cccc32)nn2c(C(=O)N[C@@H]3C[C@@H]3F)cnc12` [I-966] the same measures were “B (B (90 to >75%))” and below 10 nM.
In the case of `CNc1cc(N2CCc3c(-c4ccc(CN5CC6(CCN(C(=O)c7ccc(C(F)(F)F)c(N8CCC(=O)NC8=O)c7)CC6(F)F)C5)cn4)cccc32)nn2c(C(=O)N[C@@H]3C[C@@H]3F)cnc12` [I-969], the “TYK2 MSD OCI-LY10 Dmax %” value was “C (C (75 to 50%))” and the half-maximal degradation concentration (DC50) is below 10 nM.
Consider `CNc1cc(N2CCc3c(-c4ncc(CN5CC6(CCN(C(=O)c7cc(N8CCC(=O)NC8=O)c(C)cn7)CC6(F)F)C5)cc4F)cc(F)cc32)nn2c(C(=O)N[C@@H]3C[C@@H]3F)cnc12` [I-971], for which the “TYK2 MSD OCI-LY10 Dmax %” value was “B (B (90 to >75%))” and the half-maximal degradation concentration (DC50) is below 1 nM.
On the same counts, the results for `CNc1cc(N2CCc3c(-c4ccc(CN5CC6(CCN(C(=O)c7ccc(C(F)F)c(N8CCC(=O)NC8=O)c7)CC6(F)F)C5)cn4)cccc32)nn2c(C(=O)N[C@@H]3C[C@@H]3F)cnc12` [I-977] are “C (C (75 to 50%))” and below 10 nM.
For `CNc1cc(N2CCc3c(-c4ccc(CN5CCC6(CCN(C(=O)c7ccc(C(F)(F)F)c(N8CCC(=O)NC8=O)c7)CC6)C(F)(F)C5)cn4)cccc32)nn2c(C(=O)N[C@@H]3C[C@@H]3F)cnc12` [I-978] the same measures were “D (D (<50%))” and below 10 nM.
On to `CNc1cc(N2CCc3c(-c4ccc(CN5CCC6(CCN(C(=O)c7ccc(C(F)F)c(N8CCC(=O)NC8=O)c7)CC6)C(F)(F)C5)cn4)cccc32)nn2c(C(=O)N[C@@H]3C[C@@H]3F)cnc12` [I-980], for which the “TYK2 MSD OCI-LY10 Dmax %” value is “C (C (75 to 50%))” and the DC50 was below 10 nM.
